Experiment [1] deals with T1, Fatty-acid amide hydrolase 1 (Rattus norvegicus) (UniProt P97612).
T1 sequence (whole entry): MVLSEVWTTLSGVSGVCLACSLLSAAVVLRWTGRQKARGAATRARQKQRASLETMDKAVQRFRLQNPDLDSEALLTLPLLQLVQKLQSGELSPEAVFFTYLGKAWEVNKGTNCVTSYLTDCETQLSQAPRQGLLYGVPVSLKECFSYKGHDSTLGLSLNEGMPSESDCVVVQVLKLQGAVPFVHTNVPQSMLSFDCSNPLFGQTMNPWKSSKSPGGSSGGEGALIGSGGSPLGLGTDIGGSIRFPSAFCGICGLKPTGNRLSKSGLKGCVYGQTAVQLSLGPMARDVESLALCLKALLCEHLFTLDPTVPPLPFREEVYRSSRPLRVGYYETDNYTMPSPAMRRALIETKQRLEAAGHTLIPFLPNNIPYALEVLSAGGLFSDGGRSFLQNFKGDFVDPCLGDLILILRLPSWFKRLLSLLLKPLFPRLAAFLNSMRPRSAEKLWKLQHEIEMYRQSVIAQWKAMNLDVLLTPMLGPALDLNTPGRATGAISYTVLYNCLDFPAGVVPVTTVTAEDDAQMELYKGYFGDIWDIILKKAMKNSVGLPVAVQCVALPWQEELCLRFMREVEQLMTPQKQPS
As to the kind of experiment: Inhibition of Sprague-Dawley rat FAAH at 100 uM.

Experiment [2] addresses T2, Monoglyceride lipase (Rattus norvegicus) (UniProt Q8R431).
T2 sequence (whole entry): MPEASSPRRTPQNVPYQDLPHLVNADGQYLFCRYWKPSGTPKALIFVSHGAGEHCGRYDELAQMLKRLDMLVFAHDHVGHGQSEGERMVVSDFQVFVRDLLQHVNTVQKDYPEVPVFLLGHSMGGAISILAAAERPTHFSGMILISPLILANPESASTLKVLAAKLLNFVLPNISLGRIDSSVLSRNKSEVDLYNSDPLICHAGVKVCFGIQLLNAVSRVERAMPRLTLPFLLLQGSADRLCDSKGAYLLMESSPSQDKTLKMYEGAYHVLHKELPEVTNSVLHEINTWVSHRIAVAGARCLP
Put plainly: Inhibition of Sprague-Dawley rat MGL at 100 uM.

In the next experiment the target is T3, Monoglyceride lipase (Rattus norvegicus, UniProt Q8R431).
T3 sequence (Q8R431 whole entry): T2 sequence (whole entry)
Put plainly: Inhibition of Sprague-Dawley rat MGL.

In experiment [3] the test system is Rattus norvegicus. As to the kind of experiment: Analgesic activity in rat assessed as inhibition of acetic acid-induced writhing responses at 36 mg/kg, ip. Type of experiment: functional, organism-based. Set-up: dose 36 mg/kg.
Experiment [4] deals with Rattus norvegicus. As to the kind of experiment: Antiinflammatory activity against carrageenan-induced foot paw edema in rat. In kind it is functional.
The test system of experiment [5] is Rattus norvegicus. Put plainly: Analgesic activity in rat assessed as inhibition of acetic acid-induced writhing responses at 3.6 mg/kg, ip. Type of experiment: functional, organism-based. More on the design: dose 3.6 mg/kg.
Experiment [6] relates to Rattus norvegicus. Put plainly: Antiinflammatory activity against carrageenan-induced foot paw edema in rat at 0.01 mmol/kg, ip. Type of experiment: functional.

pKi: −log10 of the molar value. Calls of active or inactive are those of the source. No cut-off for these calls is given here.

The source of these data is ChEMBL document CHEMBL1142467, “A novel monoacylglycerol lipase inhibitor with analgesic and anti-inflammatory activity” (Bioorg Med Chem Lett, 2008).

On to `CCCCCCCCCCCCCC[C@@H](N)CO`, for which the results for the inhibition in experiment [1] and in experiment [2] were 31.3% and 30%, respectively.

`CCCCCCCCCCCCCCC(=O)C(=O)NCCO`: the figures for the inhibition in experiment [1] and in experiment [2] were 23.8% and 27.5%, respectively.

In the case of `CCCCCCOc1ccc(CCCC[C@H](N)CN)cc1`, the inhibition was found to be 30.9% in experiment [1] and 25.9% in experiment [2].

In the case of `CCCCCCCC/C=C\CCCCCC[C@@H](N)C(N)=O`, the results for the inhibition in experiment [1] and in experiment [2] were 24% and 0%, respectively.

With `CCCCCCCCCCCCCCC(N)CN` (stereo not given), the inhibition in experiment [1] was 31.2%; in experiment [2] it was 30.3%. The compound further had a negative logarithm of the Ki (pKi) at Monoglyceride lipase of 4.23.

On to `CCCCCCCCCCCCCC[C@H](N)CO`, for which the inhibition in experiment [1] was 33.6%; in experiment [2] it was 31.5%.

Take `NC[C@@H](N)CCCCc1ccccc1`: the inhibition in experiment [1] and in experiment [2] was 0% in each case.

Take `CCCCCCCC/C=C\CCCCCC[C@@H](N)CN`: the inhibition in experiment [1] worked out at 25.9%; in experiment [2], 42.2%. Also, the pKi on Monoglyceride lipase was 4.41. Besides, in the experiment on Rattus norvegicus [3], the result was Active.

Compound `CCCCCCCC/C=C\CCCCCC[C@H](N)CN` yielded a 50% effective dose (ED50) with Rattus norvegicus [4] of 10 µmol/kg. In addition, the values for the inhibition in experiment [1] and in experiment [2] were 4.9% and 49.9%, respectively. This compound also had a pKi on Monoglyceride lipase of 4.66. Besides, the outcome in the experiment with Rattus norvegicus [5] was Active.

With `COc1ccc2c(c1)c(CC(=O)O)c(C)n2C(=O)c1ccc(Cl)cc1` [INDOMETHACIN], the inhibition in vivo at 10 µmol/kg in the experiment with Rattus norvegicus [6] came to 47%.
